# Results taken from patent US11311624B2, “Inhibitors of MEK/PI3K, JAK/MEK, JAK/PI3K/mTOR and MEK/PI3K/mTOR biological pathways and methods for improving lymphatic uptake, bioavailability, and solubility of therapeutic compounds” (THE REGENTS OF THE UNIVERSITY OF MICHIGAN, priority 2017, dated 2022).
# Like-named read-outs stand apart in the source and are kept apart here.
# Assays:
# PI3Kα = PI3Kα (Homo sapiens, UniProt P42336); assay: In vitro inhibition of PI3Kα; assay type: biochemical
# PI3Kβ = PI3Kβ (Homo sapiens, UniProt P42338); assay: In vitro inhibition of PI3Kβ; assay type: biochemical
# PI3Kγ = PI3Kγ (Homo sapiens, UniProt P48736); assay: In vitro inhibition of PI3Kγ; assay type: biochemical
# PI3Kδ = PI3Kδ (Homo sapiens, UniProt O00329); assay: In vitro inhibition of PI3Kδ; assay type: biochemical
# MEK1 = MEK1 (Homo sapiens, UniProt Q02750); assay: In vitro inhibition of MEK1; assay type: biochemical
# pERK1/2 and pAKT = assay: Immunoblot of treated A375 melanoma cells (FIG. 5A); assay type: cell-based, human; settings: 1 h, 20 μM
# Description: (§1) ADME (absorption, distribution, metabolism, and excretion) studies of ST-168 have shown that ST-168 is bioavailable following administration in mice.
# In FIG. 5A, a two-dimensional assessment of ST-162 and ST-168. […] In FIG. 5B, assessment of dead cells in 3D melanoma spheroids post-treatment with ST-162 and ST-168. A375 melanoma spheroids were treated for 72 h with 20 μM each of ST-162 or ST-168 before staining with Calcein AM and ethidium homodimer-1 for fluorescent microscopy (live/dead viability assay, Molecular Probes). Green fluorescence indicates live cells, and red fluorescence indicates dead cells. Images were obtained with an Olympus IX70 fluorescent microscope using the SPOT advance program. In FIG. 5C tumor growth inhibition by ST-162 and ST-168 in a melanoma xenograft model. Tumor implantation consisted of inoculation of 5×10^6 A375 cells suspended in 100 μL of media into the flank of nude mice. Treatment was initiated once tumors reached >100 mm^3. […] Changes in tumor growth of A375 xenografts were assessed by conducting MRI imaging twice per week. Tumor volume changes between ST-162 and ST-168 treatment were determined to be statistically significant (p<0.05) using an unpaired Student's t test at the last time point. […]
# A375 xenografts = assay: Tumor growth inhibition in melanoma xenograft model (FIG. 5C); assay type: in vivo, nude mice; settings: for tumor growth: 400 mg/kg oral once daily, initial 30 days
# Description: as §1
# In FIG. 5A, a two-dimensional assessment of ST-162 and ST-168. […] In FIG. 5B, assessment of dead cells in 3D melanoma spheroids post-treatment with ST-162 and ST-168. A375 melanoma spheroids were treated for 72 h with 20 μM each of ST-162 or ST-168 before staining with Calcein AM and ethidium homodimer-1 for fluorescent microscopy (live/dead viability assay, Molecular Probes). Green fluorescence indicates live cells, and red fluorescence indicates dead cells. Images were obtained with an Olympus IX70 fluorescent microscope using the SPOT advance program. In FIG. 5C tumor growth inhibition by ST-162 and ST-168 in a melanoma xenograft model. Tumor implantation consisted of inoculation of 5×10^6 A375 cells suspended in 100 μL of media into the flank of nude mice. Treatment was initiated once tumors reached >100 mm^3. Mice were randomized into two treatment groups and treated once daily with either vehicle (200 μL of OraPlus) or 400 mg/kg each of ST-162 or ST-168 by oral gavage until sacrifice (42 days). Changes in tumor growth of A375 xenografts were assessed by conducting MRI imaging twice per week. Tumor volume changes between ST-162 and ST-168 treatment were determined to be statistically significant (p<0.05) using an unpaired Student's t test at the last time point. Experimental design: n=4-6 tumors/treatment group.
# [1] = Plasma and lymphatic tissue levels after single oral dose of ST-168 or PD901, LC-MS/MS (FIG. 3); assay type: in vivo; settings: mouse
# Description: LC-MS/MS quantification of drug concentrations in mouse tissues over time following a single oral dose is shown. FIG. 3 contains block diagrams for formulations in ORA-Plus liquid particulate suspension: FIG. 3A compound ST-168 levels at 4 hours in plasma and lymphatic tissue versus the MEK inhibitor PD0325901 (henceforth referred to as PD901). FIG. 3B ST-168 time dependence in plasma and lymphatic tissue, and formulated in Maisine, FIG. 3C ST-168 time dependence in plasma and lymphatic tissue following 100 mg/kg dose.
# In FIG. 3, LC-MS/MS quantification of drug concentrations in mouse tissues over time are shown following a single oral suspension dose of ST-168 delivered in ORA-Plus®. ORA-Plus is an aqueous-based vehicle (ORA-Plus Product Data Sheet available at Perrigo Company's website) containing a synergistic blend of suspending agents having a high degree of colloidal activity. The suspending agents form a structured, gel-like matrix which suspends particles and allow for little settling. ORA-Plus is buffered to a slightly acidic pH to help reduce degradation of medicinal agents through oxidation. The ORA-Plus contains purified water, microcrystalline cellulose, carboxymethylcellulose sodium, xanthan gum, carrageenan, calcium sulfate, trisodium phosphate, citric acid and sodium phosphate as buffers and dimethicone antifoam emulsion, preserved with methylparaben and potassium sorbate. […] Any compound delivered in ORA-Plus is distributed to the plasma and lymphatic system based upon the physiochemical properties of the drug. Thus, the formulation itself only serves to provide for a suspension of drug particulates and dissolution of drug will be based upon water solubility.
# This is an important distinction showing that Compound ST-168 has lymphatic absorptive properties because ORA-Plus is not a long chain fatty acid like Maisine. […] Data presented in FIGS. 3A through 3D reveal that the mEG linker technology for chemical coupling with drugs produces solubility properties consistent with formulation and bioavailability required for drug-like pharmaceutical characteristics and improved lymphatic absorption.
# [2] = Tolerance in colorectal, glioma and melanoma mouse xenograft models; assay type: in vivo; settings: 400 mg/kg orally, suspended in ORA-Plus, glioma, melanoma xenograft models
# Description: as §1
# [3] = ADME studies of ST-168 in mice; assay type: in vivo
# Description: as §1
# [4] = tested on: TGFα-transgenic mouse model of idiopathic pulmonary fibrosis (IPF); assay: Dox-inducible TGFα-transgenic mouse model of idiopathic pulmonary fibrosis; assay type: in vivo, mice; settings: 400 mg/kg PO, 3 week follow up CT scan
# Description: Treatment of inflammatory-mediated fibrotic diseases were also evaluated using a doxycycline (Dox)-inducible transforming growth factor-α (TGFα)-transgenic mouse model of idiopathic pulmonary fibrosis (IPF) expressing lung-epithelial specific TGFα following Dox administration. […] Weekly lung micro-CT exams were used for assessment of fibrotic burden. Nintenadib (n=5) (100 mg/kg) was also evaluated for comparison. Lung tissue was examined microscopy in a subset of animals at the conclusion of the study.
# [5] = Mesenteric lymph duct cannulation rat model, lymphatic transport (FIG. 8); assay type: in vivo; settings: 50 mg/kg intraduodenal, pretreatment with cycloheximide
# Description: Evaluation of compound mechanism for lymphatic uptake was also undertaken.
# mTOR = mTOR (Homo sapiens, UniProt P42345); assay: In vitro inhibition of mTOR; assay type: biochemical; settings: Table 10B, inhibitory activity, unit inferred
# [6] = Table 14, read-out: IC50 (nM) PI3Kα
# [7] = Table 14, read-out: IC50 (nM) PI3Kβ
# [8] = Table 14, read-out: IC50 (nM) PI3Kγ
# [9] = Table 14, read-out: IC50 (nM) PI3Kδ
# [10] = Table 10B, inhibitory activity, unit inferred, read-out: PI3Kα
# [11] = Table 10B, inhibitory activity, unit inferred, read-out: PI3Kδ
# [12] = Table 10B, inhibitory activity, unit inferred, read-out: PI3Kβ
# [13] = Table 10B, inhibitory activity, unit inferred, read-out: PI3Kγ
# Chain of PI3Kβ (P42338 whole entry, species assumed): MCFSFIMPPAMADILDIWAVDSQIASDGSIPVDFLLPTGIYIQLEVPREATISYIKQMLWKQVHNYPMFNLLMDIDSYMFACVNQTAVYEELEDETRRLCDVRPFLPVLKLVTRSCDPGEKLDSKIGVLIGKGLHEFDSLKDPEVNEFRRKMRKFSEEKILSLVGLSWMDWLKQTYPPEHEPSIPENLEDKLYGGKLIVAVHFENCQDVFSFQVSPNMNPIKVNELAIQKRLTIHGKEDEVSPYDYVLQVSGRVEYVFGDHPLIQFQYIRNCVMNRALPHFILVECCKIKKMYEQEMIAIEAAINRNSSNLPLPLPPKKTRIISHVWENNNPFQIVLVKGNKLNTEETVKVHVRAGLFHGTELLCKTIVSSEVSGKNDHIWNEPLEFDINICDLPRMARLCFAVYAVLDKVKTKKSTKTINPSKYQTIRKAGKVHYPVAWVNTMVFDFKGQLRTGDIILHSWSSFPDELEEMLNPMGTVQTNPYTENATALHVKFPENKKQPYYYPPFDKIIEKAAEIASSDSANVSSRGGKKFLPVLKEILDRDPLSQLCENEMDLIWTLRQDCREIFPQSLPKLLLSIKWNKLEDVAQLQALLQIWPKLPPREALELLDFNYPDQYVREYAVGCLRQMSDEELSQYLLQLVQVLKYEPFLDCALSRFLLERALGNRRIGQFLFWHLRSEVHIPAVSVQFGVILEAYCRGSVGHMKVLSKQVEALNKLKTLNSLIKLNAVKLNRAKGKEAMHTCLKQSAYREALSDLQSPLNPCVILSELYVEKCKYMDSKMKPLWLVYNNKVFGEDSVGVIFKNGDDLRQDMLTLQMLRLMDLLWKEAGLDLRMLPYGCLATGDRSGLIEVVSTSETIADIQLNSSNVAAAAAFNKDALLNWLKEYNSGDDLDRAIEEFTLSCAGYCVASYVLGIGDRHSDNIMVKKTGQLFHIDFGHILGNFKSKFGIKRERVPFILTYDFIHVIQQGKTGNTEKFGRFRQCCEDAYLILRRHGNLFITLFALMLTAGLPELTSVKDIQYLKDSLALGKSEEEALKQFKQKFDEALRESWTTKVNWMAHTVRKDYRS
# Chain of PI3Kβ (P27986 whole entry partner, species assumed): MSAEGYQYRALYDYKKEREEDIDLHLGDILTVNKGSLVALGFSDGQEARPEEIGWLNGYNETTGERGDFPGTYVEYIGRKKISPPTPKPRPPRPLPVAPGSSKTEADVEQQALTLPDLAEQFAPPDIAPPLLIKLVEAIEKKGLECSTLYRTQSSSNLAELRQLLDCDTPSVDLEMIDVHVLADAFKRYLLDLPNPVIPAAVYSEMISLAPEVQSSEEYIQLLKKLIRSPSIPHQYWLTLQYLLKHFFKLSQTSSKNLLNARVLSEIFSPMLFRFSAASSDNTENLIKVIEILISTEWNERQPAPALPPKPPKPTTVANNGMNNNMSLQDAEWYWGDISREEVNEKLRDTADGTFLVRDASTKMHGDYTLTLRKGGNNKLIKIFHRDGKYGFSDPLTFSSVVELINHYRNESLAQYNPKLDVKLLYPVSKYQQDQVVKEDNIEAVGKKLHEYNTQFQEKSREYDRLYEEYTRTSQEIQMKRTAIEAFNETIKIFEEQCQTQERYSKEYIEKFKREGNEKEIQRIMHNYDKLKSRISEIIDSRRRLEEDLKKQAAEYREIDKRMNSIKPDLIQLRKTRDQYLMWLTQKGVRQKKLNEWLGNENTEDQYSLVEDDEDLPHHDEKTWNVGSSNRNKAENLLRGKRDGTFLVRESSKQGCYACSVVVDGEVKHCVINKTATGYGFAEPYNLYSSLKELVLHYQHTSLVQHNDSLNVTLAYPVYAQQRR
# Chain of PI3Kα (P42336 whole entry, species assumed): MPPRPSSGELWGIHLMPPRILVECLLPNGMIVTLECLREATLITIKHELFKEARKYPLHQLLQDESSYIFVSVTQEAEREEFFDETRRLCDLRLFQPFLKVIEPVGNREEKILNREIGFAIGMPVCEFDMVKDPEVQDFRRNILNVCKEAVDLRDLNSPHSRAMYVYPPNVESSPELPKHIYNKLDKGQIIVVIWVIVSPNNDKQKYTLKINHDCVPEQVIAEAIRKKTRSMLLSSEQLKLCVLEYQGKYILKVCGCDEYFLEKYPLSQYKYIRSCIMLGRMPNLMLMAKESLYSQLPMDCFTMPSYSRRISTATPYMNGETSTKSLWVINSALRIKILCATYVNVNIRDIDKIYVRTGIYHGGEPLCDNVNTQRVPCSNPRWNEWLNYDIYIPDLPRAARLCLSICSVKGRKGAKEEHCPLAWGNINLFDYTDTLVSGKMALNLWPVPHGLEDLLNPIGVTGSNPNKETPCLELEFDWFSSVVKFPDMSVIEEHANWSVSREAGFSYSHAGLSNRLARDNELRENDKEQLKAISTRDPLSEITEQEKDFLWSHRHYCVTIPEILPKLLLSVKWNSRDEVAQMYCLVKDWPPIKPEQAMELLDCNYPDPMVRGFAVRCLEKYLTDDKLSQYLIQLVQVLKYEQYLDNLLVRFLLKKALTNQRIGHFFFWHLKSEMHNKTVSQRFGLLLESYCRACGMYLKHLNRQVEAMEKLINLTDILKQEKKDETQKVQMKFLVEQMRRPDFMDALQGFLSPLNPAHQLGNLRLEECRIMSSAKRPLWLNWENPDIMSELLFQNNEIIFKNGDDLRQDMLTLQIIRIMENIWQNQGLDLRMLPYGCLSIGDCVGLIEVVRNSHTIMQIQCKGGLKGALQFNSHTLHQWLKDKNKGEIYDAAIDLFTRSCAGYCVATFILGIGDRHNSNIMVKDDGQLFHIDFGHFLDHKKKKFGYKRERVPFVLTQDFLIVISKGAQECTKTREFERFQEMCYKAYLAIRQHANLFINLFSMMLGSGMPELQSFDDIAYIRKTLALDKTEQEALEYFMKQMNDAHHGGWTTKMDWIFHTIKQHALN
# Chain of PI3Kα (P27986 whole entry partner, species assumed): as the sequence (P27986 whole entry partner, species assumed) above
# Chain of PI3Kγ (P48736 whole entry, species assumed): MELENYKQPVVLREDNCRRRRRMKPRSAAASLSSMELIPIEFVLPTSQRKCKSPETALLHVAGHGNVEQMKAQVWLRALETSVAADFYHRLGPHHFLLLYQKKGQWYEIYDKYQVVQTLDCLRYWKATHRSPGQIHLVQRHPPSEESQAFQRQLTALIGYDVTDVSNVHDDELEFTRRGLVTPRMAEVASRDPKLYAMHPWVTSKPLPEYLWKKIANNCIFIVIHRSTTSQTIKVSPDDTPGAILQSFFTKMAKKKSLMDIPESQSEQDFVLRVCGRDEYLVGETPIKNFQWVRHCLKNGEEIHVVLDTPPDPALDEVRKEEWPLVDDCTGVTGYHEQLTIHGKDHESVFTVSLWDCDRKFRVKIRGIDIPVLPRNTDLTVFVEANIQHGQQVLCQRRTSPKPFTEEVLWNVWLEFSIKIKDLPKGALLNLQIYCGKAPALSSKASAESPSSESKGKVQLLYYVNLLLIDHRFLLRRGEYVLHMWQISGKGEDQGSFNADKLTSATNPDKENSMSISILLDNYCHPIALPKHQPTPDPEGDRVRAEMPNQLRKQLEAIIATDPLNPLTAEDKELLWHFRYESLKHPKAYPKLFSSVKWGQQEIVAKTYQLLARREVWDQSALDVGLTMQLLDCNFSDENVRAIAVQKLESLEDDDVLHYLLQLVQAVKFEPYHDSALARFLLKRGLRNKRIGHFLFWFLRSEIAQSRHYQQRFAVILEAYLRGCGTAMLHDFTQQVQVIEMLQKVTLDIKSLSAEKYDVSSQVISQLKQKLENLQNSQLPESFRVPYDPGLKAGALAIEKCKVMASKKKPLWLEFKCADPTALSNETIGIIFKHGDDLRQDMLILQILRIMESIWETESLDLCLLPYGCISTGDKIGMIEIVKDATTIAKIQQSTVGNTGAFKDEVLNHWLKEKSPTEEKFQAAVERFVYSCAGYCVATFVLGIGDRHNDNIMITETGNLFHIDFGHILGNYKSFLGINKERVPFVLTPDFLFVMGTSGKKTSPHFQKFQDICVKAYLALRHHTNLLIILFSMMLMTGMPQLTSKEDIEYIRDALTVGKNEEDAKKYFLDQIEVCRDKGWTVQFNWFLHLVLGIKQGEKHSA
# Chain of PI3Kδ (O00329 whole entry, species assumed): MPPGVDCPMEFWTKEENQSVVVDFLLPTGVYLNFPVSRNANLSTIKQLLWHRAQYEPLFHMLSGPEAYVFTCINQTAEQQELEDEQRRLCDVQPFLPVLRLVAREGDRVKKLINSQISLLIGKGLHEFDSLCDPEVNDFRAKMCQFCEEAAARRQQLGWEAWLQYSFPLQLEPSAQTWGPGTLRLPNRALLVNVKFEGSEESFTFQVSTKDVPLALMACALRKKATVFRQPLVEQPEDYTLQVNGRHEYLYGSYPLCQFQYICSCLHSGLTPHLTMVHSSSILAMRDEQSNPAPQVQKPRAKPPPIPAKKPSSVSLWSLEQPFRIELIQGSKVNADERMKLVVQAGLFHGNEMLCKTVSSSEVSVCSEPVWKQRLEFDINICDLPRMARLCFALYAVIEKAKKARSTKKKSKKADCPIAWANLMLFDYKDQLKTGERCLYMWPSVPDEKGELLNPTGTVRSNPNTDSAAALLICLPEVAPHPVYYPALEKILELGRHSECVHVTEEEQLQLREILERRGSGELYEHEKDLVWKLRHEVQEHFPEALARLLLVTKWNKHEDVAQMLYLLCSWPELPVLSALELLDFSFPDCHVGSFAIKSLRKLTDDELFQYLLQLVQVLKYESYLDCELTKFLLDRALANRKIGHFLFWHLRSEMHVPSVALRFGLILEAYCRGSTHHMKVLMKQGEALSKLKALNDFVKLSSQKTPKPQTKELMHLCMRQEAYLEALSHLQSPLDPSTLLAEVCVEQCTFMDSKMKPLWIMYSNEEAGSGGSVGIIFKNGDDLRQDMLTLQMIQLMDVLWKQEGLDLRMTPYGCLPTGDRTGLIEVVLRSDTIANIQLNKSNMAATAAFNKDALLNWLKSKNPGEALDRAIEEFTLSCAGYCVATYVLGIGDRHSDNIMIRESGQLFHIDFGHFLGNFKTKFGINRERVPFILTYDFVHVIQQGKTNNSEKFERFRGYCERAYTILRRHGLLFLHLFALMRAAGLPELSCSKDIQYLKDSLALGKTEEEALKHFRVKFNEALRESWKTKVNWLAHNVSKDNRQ
# Chain of PI3Kδ (P27986 whole entry partner, species assumed): as the sequence (P27986 whole entry partner, species assumed) above
IC50 (PI3Kα; [6]),IC50 (PI3Kβ; [7]),IC50 (PI3Kγ; [8]),IC50 (PI3Kδ; [9]),IC50 (PI3Kα; [10]),Compound,further results
,,,,191 ± 64 nM,O=C(NOCCOCCOCCOCCN1CCN(c2nc(N3CCOCC3)nc(-n3c(C(F)F)nc4ccccc43)n2)CC1)c1ccc(F)c(F)c1Nc1ccc(I)cc1F [ST-162],IC50 (PI3Kδ; [11]): 942 ± 120 nM; down regulation of pERK1/2 and pAKT in cells (pERK1/2 and pAKT): down regulate; tumor growth (A375 xenografts): tumor stasis
,,,,42.3 ± 4 nM,CN(C)C1CCN(C(=O)c2ccc(NC(=O)Nc3ccc(-c4nc(N5CCOCC5)nc(N5CCN(C(=O)CCOCCOCCOCCONC(=O)c6ccc(F)c(F)c6Nc6ccc(I)cc6F)CC5)n4)cc3)cc2)CC1 [ST-185],IC50 (mTOR): 50.4 ± 4.2 nM; IC50 (PI3Kβ; [12]): 1620 ± 442 nM; IC50 (PI3Kγ; [13]): 325 ± 78 nM; IC50 (PI3Kδ; [11]): 55.3 ± 3.9 nM

# Further lines, the compound ahead of its results:
Compound,IC50 (PI3Kα; [6]),IC50 (PI3Kβ; [7]),IC50 (PI3Kγ; [8]),IC50 (PI3Kδ; [9]),IC50 (PI3Kα; [10]),further results
CN(C)CCN(CCO)c1nc(N2CCOCC2)nc(-n2c(C(F)F)nc3ccccc32)n1 [ST-5-44],148 ± 22 nM,627 ± 174 nM,869 ± 11 nM,46.7 ± 3.3 nM,,
NOCCOCCOCCOCCN(CCO)c1nc(N2CCOCC2)nc(-n2c(C(F)F)nc3ccccc32)n1 [ST-5-46],10.9 ± 0.7 nM,1080 ± 143 nM,137 ± 21 nM,8.6 ± 1.2 nM,,
O=C(NOCCOCCOCCOCCN(CCO)c1nc(N2CCOCC2)nc(-n2c(C(F)F)nc3ccccc32)n1)c1ccc(F)c(F)c1Nc1ccc(I)cc1F [ST-5-47],107 ± 21 nM,3880 ± 725 nM,2570 ± 364 nM,137 ± 7 nM,,IC50 (MEK1): 352 ± 2 nM
NOCCOCCOCCOCCNc1nc(N2CCOCC2)nc(-n2c(C(F)F)nc3ccccc32)n1 [ST-5-50],89.3 ± 9.5 nM,1870 ± 245 nM,502 ± 20 nM,12.6 ± 1 nM,,
COCCN(CCO)c1nc(N2CCOCC2)nc(-n2c(C(F)F)nc3ccccc32)n1 [ST-6-01],5.1 ± 1.1 nM,136 ± 6.4 nM,30.7 ± 0.9 nM,8.9 ± 0.5 nM,,
O=C(NOCCOCCOCCOCCNc1nc(N2CCOCC2)nc(-n2c(C(F)F)nc3ccccc32)n1)c1ccc(F)c(F)c1Nc1ccc(F)cc1F [ST-6-02],130 ± 13 nM,1540 ± 188 nM,2740 ± 485 nM,236 ± 29 nM,,IC50 (MEK1): 124 ± 11 nM
O=C(NOCCOCCOCCOCCC(=O)N1CCN(c2nc(N3CCOCC3)nc(-n3c(C(F)F)nc4ccccc43)n2)CC1)c1ccc(F)c(F)c1Nc1ccc(I)cc1F [ST-168],,,,,69.2 ± 2.2 nM,"IC50 (PI3Kβ; [12]): 1480 ± 377 nM; IC50 (PI3Kγ; [13]): 2290 ± 241 nM; Kp at 4 h ([1]; lymphatic tissue / plasma, single oral dose in ORA-Plus suspension, 4 hours post-administration, read-out: lymphatic/plasma ratio): ~120; partitioning between lymphatic/plasma over time ([1]; single oral dose of 400 mg/kg in ORA-Plus): maintained over a 24 hour time period; lymphatic uptake (tissue concentration levels) ([1]; single oral doses of 100 mg/kg and 400 mg/kg in Maisine, 2, 4, and 24 hour): extraordinarily high lymphatic uptake; down regulation of pERK1/2 and pAKT in cells (pERK1/2 and pAKT): down regulate; tolerance / observed toxicities [2]: no observed toxicities; bioavailability following administration [3]: bioavailable; in vivo activity for suppression of MEK1/PI3K kinase activities in solid tumors, compared to ST-162 (A375 xenografts; 400 mg/kg oral gavage once daily, A375 xenografts): superior in vivo activity; tumor growth (A375 xenografts): tumor stasis; reversal of lung fibroproliferative disease and pleural thickness (CT) [4]: strong activity for reversal"
O=C(NOCCOCCOCCOCCC(=O)N1CCN(c2cnc3ccc(-c4cnc(Cl)c(NS(=O)(=O)c5ccc(F)cc5)c4)cc3n2)CC1)c1ccc(F)c(F)c1Nc1ccc(I)cc1F [ST-182],,,,,,reversal of lung fibroproliferative disease and pleural thickness (CT) [4]: strong activity for reversal; transport into the lymphatics after cycloheximide pretreatment [5]: significantly reduced
